Key:
[1] = assay type: in vivo, mice; conditions: 55° C. hot plate, 30 min after single i.p. dose; 100 mg/kg, PI-PEG 1,600 mg/kg; control 1.91 ± 0.46
[2] = Inhalation versus oral delivery of PS; assay type: in vivo, mice
U87 cells = assay: 24-h growth inhibition of U87 glioblastoma cells; assay type: cell-based; conditions: Homo sapiens, U-87 MG; U87, 24 h
Experimental: U87 cells were treated with sulindac and ibuprofen as well as with the compounds. U87 is a human primary glioblastoma cell line, formally known as U-87 MG. This cell line has epithelial morphology, and is one of the most frequently used glioblastoma cell lines.

skin papillomas = assay: DMBA/TPA-induced skin papillomas in FVB mice; assay type: in vivo
Text: This initiation-promotion protocol leads to papillomas by wk 10, and in a fraction of the mice to SCC by wk 20. […] Criteria similar to those used for human papilloma classification were applied to assess disease progression: hyperplasia→papilloma (Pap 1-3)→microinvasive SCC (M1-3)→invasive SCC. On wk 20, the study was terminated.

β-catenin signaling = assay: β-catenin transcriptional activity (TOPflash) in HEK293T cells; assay type: cell-based; conditions: 5 μM each; control 1.23±0.11
[3] = Drug levels in papillomas (HPLC); conditions: equal dose of PS orally
[4] = PK study of topical PSG versus oral PS; conditions: mouse, skin, topical or ocular

In the case of `CCOP(=O)(OCC)OCCCCOC(=O)CC1=C(C)/C(=C/c2ccc([S+](C)[O-])cc2)c2ccc(F)cc21` (stereo not drawn) [PS 118], the “latency values (mean±SD)” value [1] is reported as 4.55 ± 1.00 s, the “PS levels in plasma” value ([2]; inhalation and oral) is reported as “undetectable” and the “level of intact PS in lungs” value ([2]; inhalational 6.5 mg/kg) is reported as over 20 nmol/g. For the same compound, the “total drug levels in lungs, inhalation vs oral” value ([2]; mouse, in vivo, po) was “significantly higher compared to those by oral administration”, the “level of intact PS in lungs” value ([2]; oral 150 mg/kg) was under 2 nmol/g and the IC50 (U87 cells) was 114 µM. The “papilloma multiplicity, oral administration” value (skin papillomas; oral) was “failed to reduce papilloma multiplicity”, the “reduction of tumor burden (average tumor volume/mouse)” value (skin papillomas; topical) was about 90% and the “thickness of the epidermis” value (skin papillomas; topical) was “partial effect”. For the same compound, the “reduction of tumor number (papillomas/mouse)” value (skin papillomas; topical application) was “merely stabilized disease progression”, the luciferase/renilla activity (β-catenin signaling) was 0.76±0.03 and the “level of PS in papillomas” value [3] was 0.3 ± 0.2 nmol/g. It also gave an AUC(0-t) [4] of 684 µM·h, a Cmax [4] of 36.1 µM and a Tmax [4] of 2 h.

From patent US20130225529A1, “PHOSPHO-ESTER DERIVATIVES AND USES THEREOF” (priority 2012, published 2013)
